# Values quoted from earlier work, collected in patent publication US20160235072A1, “ANTIMICROBIAL POLYMER CONCENTRATES AND COMPOUNDS” (POLYONE CORPORATION, priority 2013, published 2016).
# System: pathogens from the Streptococcus and Staphylococcus genera
substance,measurement,value
Zinc pyrithione,effectiveness against pathogens,effective against many pathogens
